According to publication PMC7367369, “A small library of chalcones induce liver cancer cell death through Akt phosphorylation inhibition” (Scientific Reports, 2020):
Where two headings read alike, the source gives them in different places.

Tests used:
Huh7 = assay: Real-time cell electronic sensing (RT-CES) growth analysis, Huh7; assay type: cell-based; details: Homo sapiens, Huh-7
Experimental: (§1) The selected 3 compounds were further analyzed with real-time cell electronic sensing (RT-CES) system to assess the real-time growth behavior of the cells treated with the compounds. Huh7 and Mahlavu liver cancer cells were treated with the selected chalcones and monitored with RT-CES. Results of the compounds were normalized to data of negative control DMSO.
(§2) Figure 2 Real-time cell growth analysis. Human liver cancer cells Huh7 (left panel) and Mahlavu (right panel) were treated with the selected compounds. Cell index measurements were obtained by RT-CES software. DMSO was used as negative control. (A) The growth inhibition values of the compounds were obtained by the normalization with DMSO. Experiments were performed in triplicate. (B) IC50 values calculated from RT-CES experiment data. TEXT PRINTED IN THE PICTURE: (B) 1: Huh7 24h: 3.7; Huh7 72h: 5.2; Mahlavu 24h: 1.2; Mahlavu 72h: 2.3 | (B) 9: Huh7 24h: 16.1; Huh7 72h: 11.5; Mahlavu 24h: 4.9; Mahlavu 72h: 6.8 | (B) 11: Huh7 24h: 8.7; Huh7 72h: 8.8; Mahlavu 24h: 4.9; Mahlavu 72h: 6.8 DOUBTS OF THE COPYIST ABOUT THIS PICTURE: Panel B table: the picture prints no measure and no unit for the values
(§3) Huh7 and Mahlavu cells were inoculated into the e-plate (1000–2000 cells/well). The attachment, spreading, and proliferation of the cells were monitored every 30 minutes using the Xcelligence® Real-Time Cell Analysis system (ACEA Biosciences Inc.) in a cell culture incubator. […] When cells reach to an cell index (CI) impedance values about 1.5 usually in 24 hours cells were treated with the chalcones 1, 9 and 11. DMSO was used as a negative control. Each experiment was repeated three times. The CI value was noted every 10 minutes for the first 24 hours and then every 30 minutes upon chalcone treatments. The cell inhibition rate calculated as follows (%)=[1-(CItreatedcells/CIDMSO)]×100 .

Mahlavu = assay: Real-time cell electronic sensing (RT-CES) growth analysis, Mahlavu; assay type: cell-based; details: Homo sapiens
Experimental: as §1, §2, §3

[1] = test system: pAkt (Ser473) in Mahlavu cells; assay: Western blot, phosphorylated Akt levels; assay type: cell-based, human; details: IC50 concentrations (Fig. 2), 24 h
Experimental: (§4) Figure 4 Proteins targeted by the compounds. Human liver cancer cells (Mahlavu) were treated with the IC50 concentrations of the selected compounds or DMSO control for 24 h. […] (B–D) Quantification of the results using ImageJ software. (E) Schematic representation of the molecular mechanism of action of the compounds. Blocked signaling is crossed.
In order to investigate the significant bioactivity of the chalcones 1, 9 and 11 on human liver cancer cell line Mahlavu which has an hyperactive PI3K/Akt pathway due to PTEN-deficiency[13], we analyzed the effect of the chalcones on the active phosphorylated Akt levels in this cell line.
(§5) Poorly differentiated liver cancer cell line Mahlavu cells were cultured in 100 mm culture dish for 24 h. […] Anti-PARP antibody (Cell Signaling, 9532), pAkt (Ser473) antibody (Cell Signaling, 9271), Akt antibody (Cell Signaling, 9272), pNFkB-p65 (Ser468) antibody (Snat Cruz, sc101750), p21 antibody (Millipore, 05345), pRb (Ser807/811) antibody (Cell Signaling, 9308), Rb antibody (Santa Cruz, sc102), actin antibody (Sigma, A5441) and calnexin antibody (Sigma, C4731) were used as primary antibodies. Anti-rabbit (6154) and anti-mouse (0168) secondary antibodies were used. ImageJ tool ([42]) used for protein band intensity comparison. Original Full length blots are given as Supplementary Information.

p21 in Mahlavu cells = assay: Western blot, p21 protein levels; assay type: cell-based, human; details: IC50 concentrations, 24 h
Experimental: as §4
(§6) In the literature, it was shown that the anti-cancer effect of chalcones on uterus leiomyoma cells was through an increase in p21 protein[35]. Thus we also examined the levels of p21 in our cells. Furthermore, p21 is also a downstream element of Akt pathway. […] Therefore, the effect on Rb protein, which is also a downstream element of p21, was investigated in the presence of the chalcones 1, 9 and 11.
as §5, with “Original Full length blots are given as Supplementary Information.” left out

[2] = test system: pRb (Ser807/811) in Mahlavu cells; assay: Western blot, phosphorylated Rb protein levels; assay type: cell-based, human; details: IC50 concentrations, 24 h
Experimental: as §4, §6
as §5, with “Original Full length blots are given as Supplementary Information.” left out

[3] = test system: pNFkB-p65 (Ser468) in Mahlavu cells; assay: Western blot, phosphorylation of NFkB-p65; assay type: cell-based, human; details: IC50 concentrations, 24 h
Experimental: as §4
NFB is a transcription factor which is a fundamental component of inflammation pathway. This protein has also crucial roles in cell proliferation and apoptosis, thus cancer progression. […] Since the inflammation is one of the hallmarks of cancer, we also investigated the effect of our compounds on NFB protein. […] This form of NFB is the activated form which translocates into the nucleus to function as a transcription factor.
as §5, with “ImageJ tool ([42]) used for protein band intensity comparison. Original Full length blots are given as Supplementary Information.” left out

[4] = test system: PARP cleavage in Huh7 and Mahlavu cells; assay: Western blot, PARP cleavage (marker of apoptosis); assay type: cell-based, human; details: 24 h
Experimental: Human liver cancer cells Mahlavu and Huh7 were treated with the compounds according to the IC50 values obtained from RT-CES experiments or DMSO controls for 72hr. […] We further assessed the effects of the selected chalcones 1, 9, and 11 on the cell cycle progression analysis of liver cancer cells. Human liver cancer cells Mahlavu and Huh7 were treated with the compounds according to the IC50 values obtained from RT-CES for 72 h. Then the DNA in the treated cells were stained with propidium iodide and analyzed with fluorescent-activated cell sorter. […] In order to confirm the induction of apoptosis in human liver cancer cells treated with the chalcones, cleavage of PARP protein (marker of apoptosis) was investigated.
Figure 3 Cell death induced by the chalcones. (A) Nuclear staining of the liver cancer cells treated with the chalcones. Human liver cancer cells (Huh7 and Mahlavu) were treated with the IC50 concentrations of the chalcones 1, 9, 11. After 72 h of incubation with the compounds or DMSO control, Hoechst (33258) staining was performed. Images were taken with fluorescent microscope (×40). Due to the strong cytotoxic activities of the chalcones the number of the cells in objective area was much less than DMSO controls. (B) Cell cycle distribution of liver cancer cells. Huh7 and Mahlavu cells were treated for 72 h with IC50 concentrations of the compounds or DMSO control. […]

[5] = Huh7, 24h, read-out: IC50 values calculated from RT-CES experiment data, Huh7 24h
[6] = Huh7, 72h, read-out: IC50 values calculated from RT-CES experiment data, Huh7 72h
[7] = 24h, read-out: IC50 values calculated from RT-CES experiment data, Mahlavu 24h
[8] = 72h, read-out: IC50 values calculated from RT-CES experiment data, Mahlavu 72h

Question: What does the source list for `COc1ccc(C(=O)/C=C/c2cccc([N+](=O)[O-])c2)cc1` [compound 1]?
Answer: IC50 (Huh7; [5]): 3.7 µM; IC50 (Huh7; [6]): 5.2 µM; IC50 (Mahlavu; [7]): 1.2 µM; IC50 (Mahlavu; [8]): 2.3 µM; levels of pAkt [1]: decrease in the levels of pAkt

Question: How did the p21 protein levels (p21 in Mahlavu cells) turn out when `O=C(/C=C/c1ccccc1)c1ccccc1` [compound 9] was run?
Answer: Its p21 protein levels is “increased significantly”.

Question: What about the “phosphorylated Rb protein levels” value [2] of the same molecule?
Answer: The value was “decreased significantly”.

Question: What about the IC50 (Huh7; [5]) of the same molecule?
Answer: Its IC50 is 16.1 µM.

Question: And the IC50 (Huh7; [6])?
Answer: The IC50 was 11.5 µM.

Question: What about the “phosphorylation of NFB-p65 at Ser468” value [3] of the same molecule?
Answer: Its value is “decreased significantly”.

Question: What about the PARP cleavage [4] of the same molecule?
Answer: Its PARP cleavage is “PARP cleavage was present significantly”.

Question: And the IC50 (Mahlavu; [7])?
Answer: The IC50 was 4.9 µM.

Question: And the IC50 (Mahlavu; [8])?
Answer: Its IC50 is 6.8 µM.

Question: What about the “levels of pAkt” value [1] of the same molecule?
Answer: Its value is “decrease in the levels of pAkt”.

Question: With `O=C(/C=C/c1ccc(Cl)cc1)c1ccccc1` [compound 11] as the molecule, how does the p21 protein levels (p21 in Mahlavu cells) read?
Answer: Its p21 protein levels is “increased significantly”.

Question: What about the “phosphorylated Rb protein levels” value [2] of the same molecule?
Answer: Its value is “decreased significantly”.

Question: And the IC50 (Huh7; [5])?
Answer: Its IC50 is 8.7 µM.

Question: What about the IC50 (Huh7; [6]) of the same molecule?
Answer: Its IC50 is 8.8 µM.

Question: And the “phosphorylation of NFB-p65 at Ser468” value [3]?
Answer: The value was “decreased significantly”.

Question: And the PARP cleavage [4]?
Answer: Its PARP cleavage is “PARP cleavage was present significantly”.

Question: And the IC50 (Mahlavu; [7])?
Answer: Its IC50 is 4.9 µM.

Question: What about the IC50 (Mahlavu; [8]) of the same molecule?
Answer: Its IC50 is 6.8 µM.

Question: And the “levels of pAkt” value [1]?
Answer: Its value is “decrease in the levels of pAkt”.
